Experimental data taken from ChEMBL document CHEMBL2151032, “Structural and enzymatic analyses reveal the binding mode of a novel series of Francisella tularensis enoyl reductase (FabI) inhibitors” (J Med Chem, 2012).

Target: T1, Enoyl-[acyl-carrier-protein] reductase [NADH] (Francisella tularensis subsp. tularensis (strain SCHU S4 / Schu 4), UniProt Q5NGQ3)
T1 sequence (Q5NGQ3 whole entry): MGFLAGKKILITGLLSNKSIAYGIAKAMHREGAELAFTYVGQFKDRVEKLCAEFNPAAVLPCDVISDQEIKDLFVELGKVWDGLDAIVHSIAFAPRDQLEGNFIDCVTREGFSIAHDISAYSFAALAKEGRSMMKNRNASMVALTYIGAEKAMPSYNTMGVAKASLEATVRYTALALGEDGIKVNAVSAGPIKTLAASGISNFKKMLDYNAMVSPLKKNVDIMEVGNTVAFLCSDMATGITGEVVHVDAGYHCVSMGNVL

Cc1cc2ncn(Cc3ccc(Cl)c(Cl)c3)c2cc1C
Ki: 0.36 µM
